According to PMC10458360, “Assembling a Cinnamyl Pharmacophore in the C3-Position of Substituted Isatins via Microwave-Assisted Synthesis: Development of a New Class of Monoamine Oxidase-B Inhibitors for the Treatment of Parkinson’s Disease” (Molecules, 2023):

Legend:
MAO-B [1] = target: T1, MAO-B (Homo sapiens, UniProt P27338); conditions: for SI (selectivity index): IC50 for MAO-A/IC50 for MAO-B
T1 sequence (P27338 1-520): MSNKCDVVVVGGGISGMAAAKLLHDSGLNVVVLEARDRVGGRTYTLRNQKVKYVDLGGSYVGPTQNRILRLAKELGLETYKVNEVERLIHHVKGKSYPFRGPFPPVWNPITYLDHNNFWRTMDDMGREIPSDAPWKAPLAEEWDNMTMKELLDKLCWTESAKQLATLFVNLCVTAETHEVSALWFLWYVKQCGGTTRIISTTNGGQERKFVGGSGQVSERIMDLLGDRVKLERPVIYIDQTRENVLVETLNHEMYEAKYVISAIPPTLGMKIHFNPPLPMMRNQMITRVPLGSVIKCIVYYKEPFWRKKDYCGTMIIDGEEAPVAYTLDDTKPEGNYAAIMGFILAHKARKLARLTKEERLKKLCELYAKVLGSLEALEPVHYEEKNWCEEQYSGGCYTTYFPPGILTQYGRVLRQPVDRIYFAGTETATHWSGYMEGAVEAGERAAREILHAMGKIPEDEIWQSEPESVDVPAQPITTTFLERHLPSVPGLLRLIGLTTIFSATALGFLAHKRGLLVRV

MAO-A = target: T2, MAO-A (Homo sapiens, UniProt P21397); experiment: Inhibition of MAO-A (kynuramine, continuous absorbance assay); conditions: for remaining activity at 10 µM: read-out: Residual Activity at 10 µM (%) MAO-A
T2 sequence (P21397 1-527): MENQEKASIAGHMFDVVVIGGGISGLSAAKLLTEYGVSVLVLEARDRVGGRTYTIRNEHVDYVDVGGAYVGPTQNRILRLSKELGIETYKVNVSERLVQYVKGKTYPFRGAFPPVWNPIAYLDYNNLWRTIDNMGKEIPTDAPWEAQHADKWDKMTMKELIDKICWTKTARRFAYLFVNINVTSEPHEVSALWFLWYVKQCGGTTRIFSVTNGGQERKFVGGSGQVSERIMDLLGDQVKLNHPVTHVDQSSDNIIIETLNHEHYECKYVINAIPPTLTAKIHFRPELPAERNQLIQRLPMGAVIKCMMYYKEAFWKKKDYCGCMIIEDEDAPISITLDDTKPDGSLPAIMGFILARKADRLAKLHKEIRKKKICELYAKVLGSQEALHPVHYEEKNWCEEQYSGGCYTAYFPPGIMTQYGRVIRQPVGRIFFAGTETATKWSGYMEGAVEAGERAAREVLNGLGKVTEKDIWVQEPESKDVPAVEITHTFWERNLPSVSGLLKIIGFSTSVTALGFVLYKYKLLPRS

MAO-B [2] = target: T1, MAO-B; experiment: biochemical; conditions: 0.3 mM benzylamine; for IC50: IC50 (µM) MAO-B, limit 40 µM; for remaining activity at 10 µM: read-out: Residual Activity at 10 µM (%) MAO-B, 10 µM compound
MAO-B [3] = conditions: cited from earlier work
SH-SY5Y cells = experiment: Neuroprotection on rotenone-induced SH-SY5Y cells by MTT assay; format: cell-based
MAO-B [4] = target: T1, MAO-B; experiment: MAO-B enzyme kinetics (Lineweaver-Burk and secondary plot); format: biochemical
MAO-B [5] = target: T1, MAO-B; experiment: Reversibility of MAO-B inhibition by dialysis; format: biochemical; conditions: for Residual activity, dialyzed (AD): dialyzed 6 h, two buffer changes
MAO = system: MAO; design: method as in PMID 27374845; conditions: cited from earlier work
[6] = ~2.0 times IC50, preincubation 30 min

SMILES	IC50 (MAO-A)	remaining activity at 10 µM (MAO-A)	IC50 (MAO-B [2])	remaining activity at 10 µM (MAO-B [2])	further results
COc1ccc(C=CC=NN=C2C(=O)Nc3ccc(Br)cc32)cc1 [IHMC2]	> 40 µM	86.63 ± 0.52%	25.19 ± 0.147 µM	78.1 ± 1.12%	SI (selectivity index) (MAO-B [1]): >1.59
O=C1Nc2ccc(OCc3ccc(Cl)c(Cl)c3)cc2C1=O [A3]	–	–	–	–	IC50 (MAO-B [3]): 0.003 µM
COc1ccc2c(c1)C(=NN=CC=Cc1ccccc1)C(=O)N2 [IHC5]	> 40 µM	82.3 ± 1.8%	> 40 µM	75.8 ± 6.17%	–
O=C(CN1CCc2cc(OCc3ccccc3)ccc21)N1CCN(CCO)CC1 [Compound 14]	–	–	–	–	IC50 (MAO-B [3]): 8.65 µM
COc1ccc(C=CC=NN=C2C(=O)Nc3ccc(C)cc32)cc1 [IHMC6]	> 40 µM	89.8 ± 2.55%	> 40 µM	91.8 ± 3.48%	–
COc1ccc2c(c1)C(=NN=CC=Cc1ccc([N+](=O)[O-])cc1)C(=O)N2 [IHNC5]	> 40 µM	88.6 ± 1.98%	> 40 µM	82 ± 1.05%	–
COc1ccc(C=CC=NN=C2C(=O)Nc3ccc(F)cc32)cc1 [IHMC3]	> 40 µM	85.5 ± 6.42%	> 40 µM	81.3 ± 4.61%	–
O=C1Nc2ccc(Cl)cc2C1=NN=CC=Cc1ccccc1 [IHC4]	> 40 µM	86.7 ± 1.78%	27.5 ± 1.15 µM	73.9 ± 8.87%	SI (selectivity index) (MAO-B [1]): >1.46
O=C1Nc2ccccc2C1=NN=CC=Cc1ccc([N+](=O)[O-])cc1 [IHNC1]	> 40 µM	88.7 ± 2.4%	> 40 µM	96.9 ± 3.36%	–
COc1ccc(C=CC=NN=C2C(=O)Nc3ccc(OC)cc32)cc1 [IHMC5]	> 40 µM	84.48 ± 0.73%	> 40 µM	85.6 ± 4.27%	–
Cc1ccc2c(c1)C(=NN=CC=Cc1ccc([N+](=O)[O-])cc1)C(=O)N2 [IHNC6]	> 40 µM	87.2 ± 1.13%	> 40 µM	81.1 ± 6.4%	–
O=C1Nc2ccc(F)cc2/C1=N/N=CC=Cc1ccccc1 [IHC3]	> 40 µM	76.9 ± 1.55%	1.67 µM	–	Cell viability trend (SH-SY5Y cells; 25 µg/mL IHC3, rotenone-induced cells, MTT): viability decreased; viability at 12.5 µg/mL (SH-SY5Y cells; Homo sapiens, SH-SY5Y, 12.5 µg/mL IHC3, rotenone-induced cells, MTT, 24 h, read-out: Cell viability (maximum)): 89.7%; Cell death caused by rotenone (SH-SY5Y cells; SH-SY5Y neuroblastoma cells): greatly decreased the cell death; Type of MAO-B inhibition (MAO-B [4]; Lineweaver-Burk plot): competitive MAO-B inhibitor; Ki (MAO-B [4]; secondary plot, benzylamine substrate): 0.51 ± 0.15 µM; Reversibility of MAO-B inhibition (MAO-B [5]; dialysis): reversible MAO-B inhibitor; Residual activity, dialyzed (AD) (MAO-B [5]; [6]): 72.05%; Residual activity, undialyzed (AU) (MAO-B [5]; ~2.0 times IC50, preincubation 30 min, undialyzed): 32.87%; SI (selectivity index) (MAO-B [1]): >23.92; Times higher MAO-B inhibition than IHMC2 (MAO-B [1]; ratio of IC50 values): 15.07 times; Times higher MAO-B inhibition than IHNC2 (MAO-B [1]; ratio of IC50 values): 13.15 times
O=C1Nc2ccc(Br)cc2C1=NN=CC=Cc1ccc([N+](=O)[O-])cc1 [IHNC2]	> 40 µM	88.5 ± 0.71%	22 ± 0.354 µM	71.2 ± 1.99%	SI (selectivity index) (MAO-B [1]): >1.82
O=C1Nc2ccc(Br)cc2C1=NN=CC=Cc1ccccc1 [IHC2]	> 40 µM	92.37 ± 0.52%	16.9 ± 0.397 µM	61.4 ± 3.42%	SI (selectivity index) (MAO-B [1]): >2.36
C[C@H](NCc1ccc(OCc2cccc(F)c2)cc1)C(N)=O [Safinamide, reference compound]	–	–	–	–	Residual activity, dialyzed (AD) (MAO-B [5]; [6]): 85.86%
Cc1ccc2c(c1)C(=NN=CC=Cc1ccccc1)C(=O)N2 [IHC6]	> 40 µM	98.1 ± 1.55%	> 40 µM	79.4 ± 3.25%	–
COc1ccc(C=CC=NN=C2C(=O)Nc3ccc(Cl)cc32)cc1 [IHMC4]	> 40 µM	81.46 ± 0.77%	> 40 µM	76.5 ± 3.27%	–
O=C1Nc2ccccc2C1=O [isatin, 1H-indole-2,3-dione]	–	–	–	–	IC50 (MAO): ~3 µM
COc1ccc(C=CC=NN=C2C(=O)Nc3ccccc32)cc1 [IHMC1]	> 40 µM	89.9 ± 1.3%	> 40 µM	96.89 ± 0.95%	–
O=C1Nc2ccccc2C1=NN=CC=Cc1ccccc1 [IHC1]	> 40 µM	94.5 ± 2.1%	> 40 µM	89.3 ± 3%	–
O=C1Nc2ccc(F)cc2C1=NN=CC=Cc1ccc([N+](=O)[O-])cc1 [IHNC3]	> 40 µM	80.4 ± 0.57%	> 40 µM	78.9 ± 3.35%	–
O=C1Nc2ccc(Cl)cc2C1=NN=CC=Cc1ccc([N+](=O)[O-])cc1 [IHNC4]	> 40 µM	82.3 ± 0.99%	26.5 ± 0.6 µM	74.5 ± 4.63%	SI (selectivity index) (MAO-B [1]): >1.51
O=C1Nc2ccc(Br)cc2C1=O [Compound 1f]	–	–	–	–	IC50 (MAO-B [3]): 0.125 µM
C#CCN1C(=O)/C(=N/NC(=O)c2ccc3c(c2)OCO3)c2ccccc21 [Compound 3]	–	–	–	–	IC50 (MAO-B [3]): 0.034 µM
